# According to patent US12508280B2, “Formulations for improving gut health” (DSM IP ASSETS B.V., priority 2018, dated 2025):
# Experiments:
# [1] = system: Co-cultures of Caco-2 and HT29-MTX-E12 cells; experiment: Barrier integrity, leaky gut model, apical stressor Rhamnolipids; type: cell-based; conditions: vs corresponding control; for TEER, apical induction of leaky gut cellular model: 48 h minus 0 h fermentation samples; for Lucifer yellow, apical induction of leaky gut cellular model: 48 h fermentation samples
# Procedure: Since ethanol is known to have antimicrobial effects, two blanks for each type of stock solution were included. As a source of the microbial community, a freshly prepared fecal suspension from the selected donor was added to the reactors. […] All tests, except the blanks, were performed in single repetition, resulting in 40 independent incubations, as specified in Table 1. Incubation conditions of the pre-screening experiment and the final experiment were 48 h at 37° C., under shaking (90 rpm) and anaerobic conditions. […] Effluent samples were collected from each fermentation flask before (0 h fermentation) and after fermentation (48 h fermentation), sterilized by filtering through 0.22 μm filters and used for short chain fatty acids (SCFA), quantification of immunological biomarkers and in vitro analysis in cell culture systems.
# Co-cultures of Caco-2 and HT29-MTX-E12 cells were used to assess the protective effect of the supernatants before (0 h) and after fermentation (48 h) for both sets of in vitro experiments above.
# CaCo-2 ECACC 86010202 and HT29-MTX-E12 ECACC 12040401 cells (both from European Collection of Cell Cultures, Salisbury, UK) were both cultured at 37° C., in atmosphere of 5% CO2 in DMEM medium supplemented with 4.5 g/L D-Glucose, 4 mM L-Glutamine, 1 mM Sodium Pyruvate, 1% MEM Non-Essential Amino Acids, 50 μg/mL Gentamicin (Life Technologies Europe B.V., Zug, Switzerland) and 10% heat-inactivated FBS (Sigma-Aldrich, Buchs, Switzerland). Sub-confluent cells were trypsinized using 0.25% Trypsin/EDTA (Life Technologies Europe B.V., Zug, Switzerland) and passaged at a ratio of 1:5-1:10 twice a week. Cells between passages 55 and 85 were used for this study.
# Cells were seeded at a density of 20000 cells/well in a 7:3 ratio (Caco-2:HT29-MTX-E12) in Corning HTS Transwell-24 system PET membranes, 0.4 μM pore size, cell growth area 0.33 cm2/well (Corning BV, Amsterdam, Netherlands) and cultured as described above. Media was changed every second to third day.
# For both sets of in vitro experiments, the integrity of cell monolayers after the stressor test was evaluated by both TEER values and by measuring the transport of Lucifer yellow from apical to basolateral compartments (Leaky gut model). A prewarmed HBSS transport buffer composed of Hank's Balanced Salt Solution pH 7.4 with Ca2+ and Mg2+, containing 5.5 mM D-(+)-glucose, Sodium Bicarbonate, and supplemented with 4 mM L-glutamine, 20 mM HEPES (Life Technologies Europe B.V., Zug, Switzerland) was used for all permeability experiments. The inserts were rinsed twice with HBSS using a reservoir tray, 100 μl HBSS were then added to the apical site of the inserts and subsequently moved to new wells with fresh HBSS and allowed to equilibrate at 37° C. for 60 min in the incubator followed by TEER measurement to obtain baseline resistance readings.
# Lucifer Yellow CH dilithium salt (Sigma-Aldrich, Buchs, Switzerland) was dissolved in HBSS at a final concentration of 100 μg/ml. Basolateral stressor EtOH (Merck, KgaA, Darmstadt, Germany) was diluted to 5% in HBSS. Apical Stressor Rhamnolipids R90 (AGAE Technologies, Corvallis, USA) was dissolved in HBSS containing Lucifer Yellow at a final concentration of 350 μg/ml. All solutions were prepared freshly each time.
# The HBSS transport buffer from the basolateral chamber was aspirated first, then the HBSS from the apical chamber and replaced with Lucifer yellow solution. For the apical stressor test, Lucifer yellow solution containing 350 μg/ml Rhamnolipids or Lucifer yellow solution without stressor for the control wells was loaded into the apical compartment, blank HBSS was subsequently added to the basolateral chamber.
# [2] = system: fecal suspension from the selected donor; experiment: Intestinal batch fermentation, SCFA production (first set); type: cell-based, human; conditions: after 48 h fermentation, vs corresponding control
# Procedure: In a first set of in vitro experiments at the start of intestinal batch fermentation incubation, all test ingredients were added from stock solutions to the modified nutritional medium, containing (g/l): 2.5 K2HPO4, 10.9 KH2PO4, 2 NaHCO3, 2 yeast extract, 2 peptone, 1 mucin, 0.5 cysteine, 2 Tween 80, 2 glucose, 2 starch, 2 cellobiose, 0.1 NaCl, 0.01 MgSO4·7H2O, 0.01 CaCl2·6H2O, 0.05 hemin, 0.5 bile salts.
# The other compounds were prepared in ethanol: • Vitamin K1 (VK1), • MEG-3 0080 EE Oil (MEG-3 0080 EE), • MEG-3 4535 EE Oil (MEG-3 4535 EE), • MEG-3 8000 EE Oil (MEG-3 8000 EE).
# (§1) Since ethanol is known to have antimicrobial effects, two blanks for each type of stock solution were included. As a source of the microbial community, a freshly prepared fecal suspension from the selected donor was added to the reactors. […] All tests, except the blanks, were performed in single repetition, resulting in 40 independent incubations, as specified in Table 1. Incubation conditions of the pre-screening experiment and the final experiment were 48 h at 37° C., under shaking (90 rpm) and anaerobic conditions. DNA were extracted from effluent samples collected from each fermentation flask before (0 h fermentation) and after fermentation (24 h fermentation) and use for microbiome composition analysis by Shotgun sequencing. Effluent samples were collected from each fermentation flask before (0 h fermentation) and after fermentation (48 h fermentation), sterilized by filtering through 0.22 μm filters and used for short chain fatty acids (SCFA), quantification of immunological biomarkers and in vitro analysis in cell culture systems.
# Short chain fatty acids (SCFA) are an assessment of the microbial carbohydrate metabolism (acetate, propionate and butyrate) or protein metabolism (branched SCFA) and can be compared to typical fermentation patterns for normal GI microbiota. Samples for SCFA analysis were analyzed after 0, 6, 24 and 48 h of incubation for both set of in vitro experiments, above.
# SCFA were extracted from the samples with diethyl ether, after the addition of 2-methyl hexanoic acid as an internal standard. Extracts were analysed using a GC-2014 gas chromatograph (Shimadzu's-Hertogenbosch, the Nether-lands), equipped with a capillary fatty acid-free EC-1000Econo-Cap column (dimensions: […]×0.53 mm, film thickness […]; Alltech, Laarne, Belgium), a flame ionization detector and a split injector. The injection volume was […] and the temperature profile was set from 110 to 160° C., with a temperature increase of 6° C. min-1. The carrier gas was nitrogen and the temperature of the injector and detector were […] and 220° C., respectively. The production of unbranched and branched SCFA was calculated by summing the molar concentrations of acetate, propionate, butyrate, valerate and caproate, and summing isobutyrate, isovalerate and isocaproate molar concentrations, respectively. The total SCFA production was defined as the sum of unbranched and branched SCFA.
# Bifidobacterium = experiment: Microbiome composition by shotgun sequencing: Bifidobacterium (first set); type: cell-based, human; conditions: after 24 h fermentation, vs corresponding control
# Procedure: as §1
# (§2) For the first set of in vitro experiments, total DNA was extracted from all samples collected throughout the study using the QIAamp DNA stool minikit (Qiagen, Crawley, United Kingdom) according to the manufacturer's instructions, apart from addition of a bead-beating step and increasing the lysis temperature to 95° C. as described previously (McCormack et al., 2018).
# (§3) After DNA isolation, DNA was quantified using the Qubit High Sensitivity DNA assay (Thermo Fisher). Whole metagenome libraries were then prepared using the Illumina Nextera XT kit (Illumina) in accordance with the manufacturer's instructions, with the following modifications: Firstly, tagmentation time was increased to 7 min and secondly, following incorporation of indices and Ampure purification of the products, the samples were each individually sized by running on an Agilent High Sensitivity Chip (Agilent) and quantified using the Qubit High Sensitivity DNA assay (Thermo Fisher) in accordance with Teagasc Sequencing Platform SOPs. The samples were then pooled equimolarly and sequenced on the Illumina NextSeq 500 with a NextSeq 500/550 v2 high-output reagent kit (300 cycles). All sequencing was done in the Teagasc sequencing facility in accordance with standard Illumina sequencing protocols.
# (§4) Delivered raw FASTQ sequence files were quality checked as follows: poor quality and duplicate read removal, as well as trimming was implemented using a combination of SAM and Picard tools. Taxonomy was assigned to the reads using the Kraken software and functional analysis was performed with Super focus.
# HT29 cells = experiment: HT29 cell culture, quantification of immunological biomarkers; type: cell-based; conditions: effluent from 24 h fermentation, vs corresponding control
# Procedure: as §1, with “([…]), […]” for “(0 h fermentation) and after fermentation (48 h fermentation), sterilized by filtering through 0.22 μm filters and used for short chain fatty acids (SCFA), quantification of immunological biomarkers and in vitro analysis in”
# For both sets of in vitro experiments, HT29 cells were obtained from American Type Culture Collection (Manassas, VA). Cells were cultured in DMEM supplemented with 10% fetal bovine serum (FBS), 50 units/ml penicillin, 50 μg/ml streptomycin, L-glutamine, and nonessential amino acids (Life Technologies Europe B.V., Zug, Switzerland). Cells were seeded into 12-well plates at 8×10^5 cells per well and used after 2 days of preculture. They were starved in DMEM containing 0.25% FBS for 18 h before treatment. Cells were treated for 24 hours with TNF-α at 100 ng/mL or fermentation supernatants which were sterile filtered and diluted 1:20 in DMEM containing 0.25% FBS. All treatments were done in triplicate. Consequently, cytokines, chemokines and interleukins were quantified in HT29 supernatants using the Luminex Technology (LiquiChip Workstation IS 200, Qiagen, Hilden, Germany) with Bio-Plex Pro Human Cytokine Panel kits (Bio-Rad, Hercules, CA) or with Luminex Screening Assay kits (R&D Systems, Inc., Minneapolis, MN), following the manufacturer's instructions. The data were acquired with the Luminex IS 2.3 software and evaluated with the LiquiChip Analyser software (Qiagen, Hilden, Germany).
# [3] = system: fecal microbial community; experiment: Microbiome composition by shotgun sequencing: alpha diversity (first set); type: cell-based, human; conditions: after 24 h fermentation, vs corresponding control
# Procedure: as §1, §2, §3, §4
# [4] = system: genes involved in Acetyl-CoA fermentation to Butyrate pathway; experiment: Shotgun sequencing functional analysis: butyrate pathway genes (first set); type: cell-based, human; conditions: after 24 h fermentation, vs corresponding control
# Procedure: as §1, §2, §3, §4
Structure (SMILES),"TEER, apical induction of leaky gut cellular model ([1]; 0.2× dose)","TEER, apical induction of leaky gut cellular model ([1]; 1× dose)",acetate production ([2]; 0.2× dose),butyrate production ([2]; 0.2× dose),propionate production ([2]; 0.2× dose),total SCFAs production ([2]; 0.2× dose),acetate production ([2]; 1× dose),butyrate production ([2]; 1× dose),propionate production ([2]; 1× dose),total SCFAs production ([2]; 1× dose),acetate production ([2]; 5× dose),butyrate production ([2]; 5× dose),propionate production ([2]; 5× dose),total SCFAs production ([2]; 5× dose),Bifidobacterium relative abundance (Bifidobacterium; 0.2× dose),Bifidobacterium relative abundance (Bifidobacterium; 1× dose),IL-8 production by HT29 cells (HT29 cells; 0.2× dose),IL-8 production by HT29 cells (HT29 cells; 5× dose),microbiome alpha diversity (Shannon diversity index) ([3]; 0.2× dose),microbiome alpha diversity (Shannon diversity index) ([3]; 1× dose),also measured
"Nc1nc2ncc(CNc3ccc(C(=O)N[C@@H](CCC(=O)O)C(=O)O)cc3)nc2c(=O)[nH]1 [folic acid, Folic acid]",increase TEER,increase TEER,increase acetate production,increase butyrate production,increase propionate production,increase total SCFAs production,increase acetate production,increase butyrate production,increase propionate production,increase total SCFAs production,increase acetate production,increase butyrate production,increase propionate production,increase total SCFAs production,increase Bifidobacterium relative abundance,increase Bifidobacterium relative abundance,increase IL-8 production,increase IL-8 production,increase microbiome diversity,increase microbiome diversity,relative abundance of genes involved in Acetyl-CoA fermentation to Butyrate pathway ([4]; 0.2× dose): increase relative abundance
CC(=O)OC/C=C(C)/C=C/C=C(C)/C=C/C1=C(C)CCCC1(C)C [Vitamin A],increase TEER,increase TEER,–,increase butyrate production,increase propionate production,increase total SCFAs production,increase acetate production,increase butyrate production,increase propionate production,–,–,increase butyrate production,increase propionate production,increase total SCFAs production,–,increase Bifidobacterium relative abundance,increase IL-8 production,increase IL-8 production,–,increase microbiome diversity,"Lucifer yellow, apical induction of leaky gut cellular model ([1]; 1× dose): decrease Lucifer yellow; Lucifer yellow, apical induction of leaky gut cellular model ([1]; 5× dose): decrease Lucifer yellow; TEER, apical induction of leaky gut cellular model ([1]; 5× dose): increase TEER; MIP3A-CCL20 production by HT29 cells (HT29 cells; 0.2× dose): increase MIP3A-CCL20 production; MIP3A-CCL20 production by HT29 cells (HT29 cells; 1× dose): increase MIP3A-CCL20 production; MIP3A-CCL20 production by HT29 cells (HT29 cells; 5× dose): increase MIP3A-CCL20 production; microbiome alpha diversity (Shannon diversity index) ([3]; 5× dose): increase microbiome diversity; relative abundance of genes involved in Acetyl-CoA fermentation to Butyrate pathway ([4]; 1× dose): increase relative abundance; relative abundance of genes involved in Acetyl-CoA fermentation to Butyrate pathway ([4]; 5× dose): increase relative abundance"
CC1=C(C/C=C(\C)CCC[C@H](C)CCC[C@H](C)CCCC(C)C)C(=O)c2ccccc2C1=O [Vitamin K1],–,–,increase acetate production,increase butyrate production,increase propionate production,increase total SCFAs production,increase acetate production,increase butyrate production,increase propionate production,increase total SCFAs production,increase acetate production,increase butyrate production,increase propionate production,increase total SCFAs production,increase Bifidobacterium relative abundance,–,increase IL-8 production,–,increase microbiome diversity,increase microbiome diversity,"Lucifer yellow, apical induction of leaky gut cellular model ([1]; 0.2× dose): decrease Lucifer yellow; MIP3A-CCL20 production by HT29 cells (HT29 cells; 0.2× dose): increase MIP3A-CCL20 production; MIP3A-CCL20 production by HT29 cells (HT29 cells; 1× dose): increase MIP3A-CCL20 production; MIP3A-CCL20 production by HT29 cells (HT29 cells; 5× dose): increase MIP3A-CCL20 production; microbiome alpha diversity (Shannon diversity index) ([3]; 5× dose): increase microbiome diversity; relative abundance of genes involved in Acetyl-CoA fermentation to Butyrate pathway ([4]; 0.2× dose): increase relative abundance; relative abundance of genes involved in Acetyl-CoA fermentation to Butyrate pathway ([4]; 1× dose): increase relative abundance; relative abundance of genes involved in Acetyl-CoA fermentation to Butyrate pathway ([4]; 5× dose): increase relative abundance"
